Measured values reported in article PMC3608651, “A Broad Profile of Co-Dominant Epitopes Shapes the Peripheral Mycobacterium tuberculosis Specific CD8+ T-Cell Immune Response in South African Patients with Active Tuberculosis” (PLoS ONE, 2013).
Like-named read-outs stand apart in the source and are kept apart here.

Columns and labels:
Assay type in all cases: binding
[1] = target: HLA-A*24:02 (Homo sapiens, UniProt P04439, D101N/D140Y/D185E/E176V/E190D/F33S/G103R/G107R/I119L/I121M/I306V/K335N/L105A/L180Q/L300P/N151K/N90K/Q86E/Q94H/R106L/R138H/R89G/T104I/T345S/V100E/W191G/Y123F); details: duplicated experiments, positive binder >40%
[2] = target: T1, HLA-A*02:01 (Homo sapiens, UniProt P04439, D140Y/D185E/D98H/E176V/E277Q/G131W/G231S/I119V/I121R/I166T/I218V/L300P/L318F/N151K/N90K/P208A/P217A/Q86G/Q94H/R138H/R169H/T345S); details: plate-bound monomer 0.5 µg/ml, duplicated experiments, positive binder >40%
[3] = target: T2, HLA-A*30:02 (Homo sapiens, UniProt P04439, D101N/D140H/D185E/E176R/F33S/G80R/H175R/K168Q/Q94H/R138E/R41S/V100E); details: duplicated experiments, positive binder >40%
[4] = target: HLA-A*30:01 (Homo sapiens, UniProt P04439, D140H/D185E/E176W/F33S/G80R/H175R/K168Q/R138E/R41S); details: duplicated experiments, positive binder >40%
[5] = target: T1, HLA-A*02:01; details: time points 0-8 h; time when 50% of peptide has dissociated
[6] = target: HLA-B*07:02 (Homo sapiens, UniProt P01889); details: percent relative the binding of positive control peptide […]; duplicated experiments; positive binder >40%
[7] = target: HLA-C*07:01 (Homo sapiens, UniProt P10321, K90N/S123Y); details: duplicated experiments, positive binder >40%
[8] = target: T3, HLA-A*68:01 (Homo sapiens, UniProt P04439, A269V/D185E/E176V/E277Q/E87N/F33Y/G231S/I121M/I166T/I218V/L180W/L300P/L318F/N151K/P208A/P217A/Q86R/R169H/T345S); details: duplicated experiments, positive binder >40%
[9] = target: T4, HLA-B*58:01 (Homo sapiens, UniProt P01889, A329T/C349S/D201E/D98Y/E176V/E187L/E204Q/E69T/G107R/I218V/I90N/K202T/L105A/L119I/N104I/N87E/Q89R/Q94S/R106L/R155S/R180L/R86G/S101N/S121R/S35A/S48A/T118I/V127L/V306I/V36M/Y140S/Y91M); details: duplicated experiments, positive binder >40%
[10] = target: T1, HLA-A*02:01; details: peptide quantity for 50% binding saturation
[11] = target: T2, HLA-A*30:02
[12] = target: T2, HLA-A*30:02; details: time points 0-8 h
[13] = target: T3, HLA-A*68:01
[14] = target: T3, HLA-A*68:01; details: time points 0-8 h
[15] = target: T4, HLA-B*58:01
[16] = target: T4, HLA-B*58:01; details: time points 0-8 h
[17] = percent relative the binding of positive control peptide […]

| Substance | O-rate A*02:01 (t1/2) [5] | Bind B*07:02 [6] | Bind A*24:02 [1, 17] | Bind A*02:01 [2, 17] | Bind A*30:02 [3, 17] | Bind A*30:01 [4, 17] | Aff A*30:02 (ED50) [11] | Bind C*07:01 [7, 17] | Bind A*68:01 [8, 17] | O-rate A*30:02 (t1/2) [12] | Aff A*68:01 (ED50) [13] | Bind B*58:01 [9, 17] | O-rate A*68:01 (t1/2) [14] | Aff B*58:01 (ED50) [15] | O-rate B*58:01 (t1/2) [16] | further results |
| --- | --- | --- | --- | --- | --- | --- | --- | --- | --- | --- | --- | --- | --- | --- | --- | --- |
| KLAAAWGGS [Rv3875_38-46] | 2 h | 6% |  |  |  |  |  |  |  |  |  |  |  |  |  | Bind A*24:02 ([1]; percent relative the binding of positive control peptide RYLKDQQLL): 33%; Bind A*02:01 ([2]; percent relative the binding of positive control peptide FLPSDFFPSV): 57%; Bind A*30:02 ([3]; percent relative the binding of positive control peptide KIQNFRVYY): 39%; Bind A*30:01 ([4]; percent relative the binding of positive control peptide KTKDIVNGL): 0%; Bind C*07:01 ([7]; percent relative the binding of positive control peptide KYFDEHYEY): 11%; Bind A*68:01 ([8]; percent relative the binding of positive control peptide KTGGPIYKR): 0%; Bind B*58:01 ([9]; percent relative the binding of positive control peptide IAMESIVIW): 21%; Aff A*02:01 (ED50) ([10]; peptide titrated 10−4 to 10−9 M): 100 nM |
| AVYLLDGLR |  | 0% | 8% | 24% | 115% | 1% | 200 nM | 4% | 114% | 1.2 h | 2E -07 M | 0% | 1.1 h |  |  |  |
| GLSIVMPVG | 2.1 h | 0% | 0% | 100% | 0% | 0% |  | 0% | 0% |  |  | 0% |  |  |  | Aff A*02:01 (ED50) ([10]; […]): 70 nM |
| QSSFYSDWY |  | 0% | 0% | 0% | 90% | 0% | 600 nM | 22% | 82% | 2.2 h | 1E -06 M | 39% | 0.4 h |  |  |  |
| RDTAEAAKW [Rv0288_86–94] |  |  |  |  |  |  |  | 0% | 65% |  | 1e-05 M | 45% | 4.3 h | 5000 nM | 2.6 h |  |
| EQAALQSAW [Rv0288_35–43] |  |  |  |  |  |  |  | 0% | 47% |  | 1e-05 M | 79% | 2.8 h | 6000 nM | 0.8 h |  |
| QAWQAQWNQ [Rv0288_52–60] |  |  |  |  |  |  |  | 0% | 55% |  | 7e-06 M | 45% | 3.0 h | 4000 nM | 0.5 h |  |
| AMGDAGGYK |  | 8% | 0% | 31% | 80% | 28% | 700 nM | 0% | 94% | 1.6 h | 5e-07 M | 0% | 3.2 h |  |  |  |
| AVFNFPPNG |  | 0% | 23% | 69% | 101% | 21% | 3000 nM | 1% | 81% | 0.3 h | 8E -09 M | 33% | 0.2 h |  |  |  |
| F EW YYQSG L | 0.8 h | 11% | 37% | 124% | 26% | 10% |  | 15% | 10% |  |  | 0% |  |  |  | Aff A*02:01 (ED50) ([10]; […]): 700 nM |
| WQGDTGITY [Rv0288_43–51] |  |  |  |  |  |  |  | 0% | 61% |  | 1e-05 M | 33% | 6.0 h | 8000 nM | 1.8 h |  |
| ITYQAWQAQ [Rv0288_49–57] |  |  |  |  |  |  |  | 0% | 56% |  | 9e-06 M | 78% | 1.9 h | 200 nM | 0.5 h |  |
| MLDHAGDMA [Rv0288_11–19m1] | 1.5 h |  |  | 48% |  |  |  |  |  |  |  |  |  |  |  | Aff A*02:01 (ED50) ([10]; […]): 60 nM |
